From paper PMC8658016, “Identification of New Compounds with Anticonvulsant and Antinociceptive Properties in a Group of 3-substituted (2,5-dioxo-pyrrolidin-1-yl)(phenyl)-Acetamides” (International Journal of Molecular Sciences, 2021)
Read-outs that look alike come from different tables or passages of the source.

Experiments:
[1] = tested on: mice; assay: Maximal electroshock seizure (MES) test; format: in vivo, mouse; conditions: mice i.p.; for ED50: Mus musculus, ip, 95% confidence interval in parentheses; for MES screening: number of mice protected / number of mice tested / protection in the MES test: 100 mg/kg, 0.5 h
[2] = tested on: mice; assay: Psychomotor 6 Hz (32 mA) seizure test; format: in vivo, mouse; conditions: mice i.p.; for ED50: Mus musculus, ip, 95% confidence interval in parentheses; for 6 Hz (32 mA) screening: number of mice protected / number of mice tested / protection in the 6 Hz (32 mA) test: 100 mg/kg, 0.5 h
[3] = tested on: mice; assay: Subcutaneous pentylenetetrazole (scPTZ) seizure test; format: in vivo, mouse; conditions: mice i.p.; for ED50: Mus musculus, ip, 95% confidence interval in parentheses; for protection in the scPTZ test / scPTZ screening: number of mice protected / number of mice tested: 100 mg/kg, 0.5 h
[4] = in vivo; conditions: male, CD-1, mouse, ip
[5] = tested on: TTX-sensitive Na+ channel; assay: Radioligand binding, TTX-sensitive Na+ channel; conditions: rat cerebral cortex
[6] = target: T1, TRPV1 (VR1) (h) (Homo sapiens, UniProt Q8NER1); assay: TRPV1 (VR1) functional assay, antagonist effect; format: cell-based; conditions: HEK293, human recombinant HEK-293 cells, read-out: % Inhibition of Control Agonist Response, TRPV1 (VR1) (h) (antagonist effect)
T1 construct: Cerep Laboratories / Eurofins Panlabs (contract assay)

[7] = tested on: Cav1.2 channel (dihydropyridine site, antagonist radioligand); assay: Radioligand binding, Cav1.2 channel (dihydropyridine site); conditions: rat cerebral cortex
[8] = target: Cav1.2 (h) calcium ion channel (Homo sapiens, UniProt Q13936); assay: Cav1.2 calcium ion channel cell based antagonist calcium flux assay; conditions: HEK293, read-out: % Inhibition of Control Agonist Response, Cav1.2 (h) calcium ion channel cell based antagonist calcium flux assay
[9] = tested on: mice; conditions: mice i.p.; cited from earlier work
[10] = tested on: mice; conditions: mice i.p.; cited from earlier work; remark: listed apart in the source
[11] = tested on: mice; conditions: mice i.p.; cited from earlier work; remark: listed apart in the source
[12] = tested on: fast voltage-gated sodium currents in rat prefrontal cortex pyramidal neurons; set-up: method as in PMID 33647745; conditions: 1 µM; p < 0.01, n = 5; cited from earlier work
[13] = tested on: mice; set-up: method as in PMID 32929733; conditions: mice i.p.; cited from earlier work
[14] = tested on: mice; conditions: mice i.p., cited from earlier work
[15] = tested on: mice; set-up: method as in PMID 28934547; conditions: active only in a very high dose; cited from earlier work

T1 sequence (Q8NER1 whole entry): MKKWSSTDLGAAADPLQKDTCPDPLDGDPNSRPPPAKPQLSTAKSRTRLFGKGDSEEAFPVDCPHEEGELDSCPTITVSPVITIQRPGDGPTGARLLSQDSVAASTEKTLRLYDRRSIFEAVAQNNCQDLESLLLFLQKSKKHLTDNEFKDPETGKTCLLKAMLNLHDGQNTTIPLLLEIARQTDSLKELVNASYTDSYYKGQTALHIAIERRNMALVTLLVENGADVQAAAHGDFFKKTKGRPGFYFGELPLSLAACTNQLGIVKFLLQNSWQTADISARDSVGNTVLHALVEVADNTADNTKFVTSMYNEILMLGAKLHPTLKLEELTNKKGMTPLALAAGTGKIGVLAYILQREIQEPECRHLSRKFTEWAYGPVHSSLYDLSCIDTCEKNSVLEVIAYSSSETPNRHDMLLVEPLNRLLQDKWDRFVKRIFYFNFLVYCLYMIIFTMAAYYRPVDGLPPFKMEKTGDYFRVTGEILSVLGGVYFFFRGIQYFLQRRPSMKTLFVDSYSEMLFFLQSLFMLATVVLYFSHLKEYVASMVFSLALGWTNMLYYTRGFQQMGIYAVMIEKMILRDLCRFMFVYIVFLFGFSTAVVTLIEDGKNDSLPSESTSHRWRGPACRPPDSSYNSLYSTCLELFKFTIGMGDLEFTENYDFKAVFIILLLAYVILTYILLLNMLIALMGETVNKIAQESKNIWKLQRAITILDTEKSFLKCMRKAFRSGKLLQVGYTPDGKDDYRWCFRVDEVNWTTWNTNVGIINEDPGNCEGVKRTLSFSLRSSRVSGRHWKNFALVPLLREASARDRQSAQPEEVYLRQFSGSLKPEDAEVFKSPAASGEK
Sequence of Cav1.2 (h) calcium ion channel (Q13936 whole entry): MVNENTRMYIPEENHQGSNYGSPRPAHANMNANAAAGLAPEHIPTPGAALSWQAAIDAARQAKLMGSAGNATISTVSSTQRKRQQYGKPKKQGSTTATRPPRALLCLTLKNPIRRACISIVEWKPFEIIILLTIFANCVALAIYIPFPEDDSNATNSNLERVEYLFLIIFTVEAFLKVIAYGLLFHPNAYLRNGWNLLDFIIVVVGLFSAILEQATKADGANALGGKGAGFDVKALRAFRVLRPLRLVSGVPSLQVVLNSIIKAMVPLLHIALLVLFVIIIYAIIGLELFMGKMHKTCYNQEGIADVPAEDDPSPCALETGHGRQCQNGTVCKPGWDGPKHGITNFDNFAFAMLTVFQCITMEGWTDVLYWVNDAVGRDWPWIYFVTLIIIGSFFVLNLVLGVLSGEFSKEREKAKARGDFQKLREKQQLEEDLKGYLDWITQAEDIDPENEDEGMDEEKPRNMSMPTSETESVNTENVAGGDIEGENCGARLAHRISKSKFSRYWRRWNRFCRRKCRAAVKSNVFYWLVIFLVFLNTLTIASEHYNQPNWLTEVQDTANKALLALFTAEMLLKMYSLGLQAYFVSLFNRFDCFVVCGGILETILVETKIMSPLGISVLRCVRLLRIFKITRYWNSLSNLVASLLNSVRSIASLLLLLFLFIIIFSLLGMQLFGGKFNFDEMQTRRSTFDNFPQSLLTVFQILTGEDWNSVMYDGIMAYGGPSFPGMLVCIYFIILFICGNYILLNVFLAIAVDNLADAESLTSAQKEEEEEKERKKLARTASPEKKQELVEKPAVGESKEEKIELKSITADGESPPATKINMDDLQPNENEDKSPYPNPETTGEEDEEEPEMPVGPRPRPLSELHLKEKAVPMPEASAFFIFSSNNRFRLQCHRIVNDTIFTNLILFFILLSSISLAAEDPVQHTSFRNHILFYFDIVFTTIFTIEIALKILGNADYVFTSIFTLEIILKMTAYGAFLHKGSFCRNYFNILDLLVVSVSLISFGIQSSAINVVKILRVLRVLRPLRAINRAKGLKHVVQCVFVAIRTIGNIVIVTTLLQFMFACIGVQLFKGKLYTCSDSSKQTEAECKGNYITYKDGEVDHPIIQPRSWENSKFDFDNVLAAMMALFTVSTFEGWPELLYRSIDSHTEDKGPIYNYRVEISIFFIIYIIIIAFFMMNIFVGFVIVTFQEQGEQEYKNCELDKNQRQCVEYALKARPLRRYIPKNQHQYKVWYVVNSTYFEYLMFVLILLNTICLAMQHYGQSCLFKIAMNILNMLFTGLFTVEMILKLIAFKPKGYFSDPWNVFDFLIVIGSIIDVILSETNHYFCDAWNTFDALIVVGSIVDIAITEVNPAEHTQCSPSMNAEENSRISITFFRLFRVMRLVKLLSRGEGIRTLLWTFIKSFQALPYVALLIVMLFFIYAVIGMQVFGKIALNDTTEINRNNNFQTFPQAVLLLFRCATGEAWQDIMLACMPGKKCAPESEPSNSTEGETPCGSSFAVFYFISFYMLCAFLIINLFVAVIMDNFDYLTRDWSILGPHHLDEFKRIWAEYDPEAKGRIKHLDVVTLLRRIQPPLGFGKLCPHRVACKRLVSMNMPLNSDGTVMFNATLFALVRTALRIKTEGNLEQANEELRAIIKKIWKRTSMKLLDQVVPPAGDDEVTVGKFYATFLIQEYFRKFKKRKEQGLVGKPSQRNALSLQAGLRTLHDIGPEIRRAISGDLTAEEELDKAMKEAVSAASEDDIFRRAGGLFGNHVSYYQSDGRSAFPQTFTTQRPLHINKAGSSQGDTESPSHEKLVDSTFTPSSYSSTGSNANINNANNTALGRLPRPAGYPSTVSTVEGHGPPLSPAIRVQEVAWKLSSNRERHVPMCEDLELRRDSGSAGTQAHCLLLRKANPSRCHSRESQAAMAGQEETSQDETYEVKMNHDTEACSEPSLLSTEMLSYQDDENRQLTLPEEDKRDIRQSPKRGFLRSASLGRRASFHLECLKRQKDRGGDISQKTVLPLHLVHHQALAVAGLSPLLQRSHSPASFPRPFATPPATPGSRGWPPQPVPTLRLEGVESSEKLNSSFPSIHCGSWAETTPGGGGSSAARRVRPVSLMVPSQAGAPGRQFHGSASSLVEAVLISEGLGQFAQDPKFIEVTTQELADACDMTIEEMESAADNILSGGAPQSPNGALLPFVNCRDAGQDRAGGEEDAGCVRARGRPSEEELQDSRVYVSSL
Sequence of Cav1.2 (h) calcium ion channel (Q08289 whole entry partner): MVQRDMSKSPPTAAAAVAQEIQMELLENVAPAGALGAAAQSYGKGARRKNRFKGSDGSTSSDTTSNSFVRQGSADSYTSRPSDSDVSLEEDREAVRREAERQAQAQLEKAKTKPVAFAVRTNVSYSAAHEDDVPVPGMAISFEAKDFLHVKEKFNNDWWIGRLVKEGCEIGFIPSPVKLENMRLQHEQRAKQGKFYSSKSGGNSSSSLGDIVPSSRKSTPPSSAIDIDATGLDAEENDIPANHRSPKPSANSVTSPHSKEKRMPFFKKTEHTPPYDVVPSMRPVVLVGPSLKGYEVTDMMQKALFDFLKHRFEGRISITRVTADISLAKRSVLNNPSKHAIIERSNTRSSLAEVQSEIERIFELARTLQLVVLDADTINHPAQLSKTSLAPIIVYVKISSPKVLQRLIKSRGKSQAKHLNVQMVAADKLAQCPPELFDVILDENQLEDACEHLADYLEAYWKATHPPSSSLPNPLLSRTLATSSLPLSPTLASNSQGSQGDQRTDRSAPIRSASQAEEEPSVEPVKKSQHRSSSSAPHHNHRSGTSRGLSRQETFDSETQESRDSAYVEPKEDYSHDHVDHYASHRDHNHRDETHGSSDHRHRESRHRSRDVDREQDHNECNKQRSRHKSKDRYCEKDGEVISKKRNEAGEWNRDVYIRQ
Sequence of Cav1.2 (h) calcium ion channel (P54289 25-956 partner limits assumed): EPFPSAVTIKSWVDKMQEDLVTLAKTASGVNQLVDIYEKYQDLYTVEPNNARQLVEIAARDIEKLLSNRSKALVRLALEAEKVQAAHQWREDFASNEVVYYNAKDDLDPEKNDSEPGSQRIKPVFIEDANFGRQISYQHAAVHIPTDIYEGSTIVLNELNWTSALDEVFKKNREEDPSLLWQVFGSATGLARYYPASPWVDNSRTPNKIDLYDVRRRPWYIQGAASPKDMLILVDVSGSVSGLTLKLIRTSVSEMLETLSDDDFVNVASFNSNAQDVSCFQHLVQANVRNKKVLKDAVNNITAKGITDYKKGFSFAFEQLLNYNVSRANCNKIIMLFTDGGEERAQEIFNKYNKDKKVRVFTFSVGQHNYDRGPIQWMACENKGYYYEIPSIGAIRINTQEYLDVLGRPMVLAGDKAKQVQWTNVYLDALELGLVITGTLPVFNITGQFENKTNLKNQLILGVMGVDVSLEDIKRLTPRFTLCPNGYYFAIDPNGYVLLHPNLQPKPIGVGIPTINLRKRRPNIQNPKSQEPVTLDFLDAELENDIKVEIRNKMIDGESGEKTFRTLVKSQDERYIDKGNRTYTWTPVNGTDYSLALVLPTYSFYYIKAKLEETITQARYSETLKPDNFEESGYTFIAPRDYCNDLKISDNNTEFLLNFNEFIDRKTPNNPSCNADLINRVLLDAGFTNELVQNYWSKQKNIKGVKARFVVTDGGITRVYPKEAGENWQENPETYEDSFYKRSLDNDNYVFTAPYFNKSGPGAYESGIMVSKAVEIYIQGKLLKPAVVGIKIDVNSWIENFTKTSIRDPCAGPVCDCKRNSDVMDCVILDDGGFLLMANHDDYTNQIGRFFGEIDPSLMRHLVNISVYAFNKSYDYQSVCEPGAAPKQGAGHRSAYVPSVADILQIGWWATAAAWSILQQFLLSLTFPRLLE
Sequence of Cav1.2 (h) calcium ion channel (P54289 957-1103 partner limits assumed): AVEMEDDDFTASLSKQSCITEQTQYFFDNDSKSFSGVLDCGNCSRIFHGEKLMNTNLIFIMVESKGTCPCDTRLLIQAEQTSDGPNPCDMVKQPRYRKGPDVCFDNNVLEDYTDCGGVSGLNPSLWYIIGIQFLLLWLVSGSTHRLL

In the case of CN(C)C1CC(=O)N([C@@H](C(=O)N2CCN(c3cccc(C(F)(F)F)c3)CC2)c2ccccc2)C1=O.Cl (stereo partly drawn) [(C1-R)-31, 3-Dimethylamino-1-((R)-oxo-1-phenyl-2-(4-(3-(trifluoromethyl)phenyl)-piperazin-1-yl)ethyl)pyrrolidine-2,5-dione hydrochloride], the ED50 [1] is reported as 57.7 mg/kg, the “MES screening: number of mice protected / number of mice tested” value [1] is reported as 4/4 and the “protection in the MES test” value [1] is reported as 100%. The ED50 [2] was 50.9 mg/kg, the “6 Hz (32 mA) screening: number of mice protected / number of mice tested” value (“6 Hz … of mice protected / number of mice tested” below) [2] was 3/4 and the “protection in the 6 Hz (32 mA) test” value [2] was 75%. The ED50 [3] was 65.5 mg/kg, the “protection in the scPTZ test” value [3] was 75% and the “scPTZ screening: number of mice protected / number of mice tested” value [3] was 3/4. The melting point was 169.8 to 170.6 °C and the TD50 [4] was 94.9 mg/kg.

For CN(C)C1CC(=O)N([C@@H](C(=O)N2CCN(c3cccc(OC(F)(F)F)c3)CC2)c2ccccc2)C1=O.Cl (stereo partly drawn) [(C1-R)-32, 3-Dimethylamino-1-((R)-2-oxo-1-phenyl-2-(4-(3-(trifluoromethoxy)phenyl)piperazin-1-yl)ethyl)pyrrolidine-2,5-dione hydrochloride], the ED50 [1] was 26.3 mg/kg, the “MES screening: number of mice protected / number of mice tested” value [1] was 4/4 and the “protection in the MES test” value [1] was 100%. For the same molecule, the ED50 [2] was 28.3 mg/kg, the “6 Hz … of mice protected / number of mice tested” value [2] was 3/4 and the “protection in the 6 Hz (32 mA) test” value [2] was 75%. The ED50 [3] was 44.9 mg/kg, the “protection in the scPTZ test” value [3] was 75% and the “scPTZ screening: number of mice protected / number of mice tested” value [3] was 3/4. For the same molecule, the “% Inhibition of Control-Specific Binding, TTX-sensitive Na+ channel” value ([5]; 10 µM) was 33.4%, the “% Inhibition of Control-Specific Binding, TTX-sensitive Na+ channel” value ([5]; 50 µM) was 101.9% and the inhibition at 10 µM ([6]; 10 µM) was 8.5%. The inhibition at 50 µM ([6]; 50 µM) was 44.6%, the melting point was 164.8 to 165.7 °C and the TD50 [4] was 72 mg/kg. The “% Inhibition of Control-Specific Binding, Cav1.2 channel (dihydropyridine site, antagonist radioligand)” value ([7]; 10 µM) was 18.6%, the “% Inhibition of Control-Specific Binding, Cav1.2 channel (dihydropyridine site, antagonist radioligand)” value ([7]; 50 µM) was 88.9% and the inhibition at 10 µM [8] was 38%.

For CN(C)C1CC(=O)N([C@@H](C(=O)N2CCN(c3cccc(SC(F)(F)F)c3)CC2)c2ccccc2)C1=O.Cl (stereo partly drawn) [(C1-R)-33, 3-Dimethylamino-1-((R)-2-oxo-1-phenyl-2-(4-(3-((trifluoromethyl)thio)phenyl)piperazin-1-yl)ethyl)pyrrolidine-2,5-dione hydrochloride], the “MES screening: number of mice protected / number of mice tested” value [1] was 1/4, the “6 Hz … of mice protected / number of mice tested” value [2] was 1/4 and the “scPTZ screening: number of mice protected / number of mice tested” value [3] was 1/4. It also gave a melting point of 173.2 to 174.7 °C.

In the case of CN(C)C1CC(=O)N([C@H](C(=O)N2CCN(c3cccc(C(F)(F)F)c3)CC2)c2ccccc2)C1=O.Cl (stereo partly drawn) [(C1-S)-31, 3-Dimethylamino-1-((S)-oxo-1-phenyl-2-(4-(3-(trifluoromethyl)phenyl)-piperazin-1-yl)ethyl)pyrrolidine-2,5-dione hydrochloride], the “MES screening: number of mice protected / number of mice tested” value [1] is reported as 1/4, the ED50 [2] is reported as > 130 mg/kg and the “6 Hz … of mice protected / number of mice tested” value [2] is reported as 2/4. The “scPTZ screening: number of mice protected / number of mice tested” value [3] was 1/4, the melting point was 169.2 to 170.8 °C and the TD50 [4] was 188 mg/kg.

In the case of CNC1CC(=O)N(C(C(=O)N2CCN(c3cccc(C(F)(F)F)c3)CC2)c2ccccc2)C1=O.Cl (stereo not drawn) [Compound 13, 3-(Methylamino)-1-(2-oxo-1-phenyl-2-(4-(3-(trifluoromethyl)phenyl)piperazin-1-yl)ethyl)pyrrolidine-2,5-dione hydrochloride], the “MES screening: number of mice protected / number of mice tested” value [1] is reported as 1/4, the ED50 [2] is reported as 93.6 mg/kg and the “6 Hz … of mice protected / number of mice tested” value [2] is reported as 2/4. For the same molecule, the “protection in the 6 Hz (32 mA) test” value [2] was 50%, the ED50 [3] was 85.6 mg/kg and the “scPTZ screening: number of mice protected / number of mice tested” value [3] was 2/4. It also gave a melting point of 161.2 to 163.4 °C.

With CCN(CC)C1CC(=O)N(C(C(=O)N2CCN(c3cccc(C(F)(F)F)c3)CC2)c2ccccc2)C1=O.Cl (stereo not drawn) [Compound 15, 3-(Diethylamino)-1-(2-oxo-1-phenyl-2-(4-(3-(trifluoromethyl)phenyl)piperazin-1-yl)ethyl)pyrrolidine-2,5-dione hydrochloride] the ED50 [1] was 77.5 mg/kg, the “MES screening: number of mice protected / number of mice tested” value [1] was 4/4 and the “protection in the MES test” value [1] was 100%. For the same molecule, the ED50 [2] was 80.4 mg/kg, the “6 Hz … of mice protected / number of mice tested” value [2] was 3/4 and the “protection in the 6 Hz (32 mA) test” value [2] was 75%. For the same molecule, the “scPTZ screening: number of mice protected / number of mice tested” value [3] was 1/4, the melting point was 142.2 to 143.1 °C and the TD50 [4] was 247 mg/kg.

With Cl.O=C(C(c1ccccc1)N1C(=O)CC(N2CCOCC2)C1=O)N1CCN(c2cccc(C(F)(F)F)c2)CC1 (stereo not drawn) [Compound 16, 3-Morpholino-1-(2-oxo-1-phenyl-2-(4-(3-(trifluoromethyl)phenyl)piperazin-1-yl)ethyl)pyrrolidine-2,5-dione hydrochloride] the “MES screening: number of mice protected / number of mice tested” value [1] was 0/4, the “6 Hz … of mice protected / number of mice tested” value [2] was 0/4 and the “scPTZ screening: number of mice protected / number of mice tested” value [3] was 1/4. It also gave a melting point of 146.2 to 147.5 °C.

In the case of CN(C)C1CC(=O)N(C(C(=O)N2CCN(c3cccc(OC(F)(F)F)c3)CC2)c2ccccc2)C1=O.Cl (stereo not drawn) [Compound 17, 3-Dimethylamino-1-(2-oxo-1-phenyl-2-(4-(3-(trifluoromethoxy)phenyl)piperazin-1-yl)ethyl)pyrrolidine-2,5-dione hydrochloride], the ED50 [1] is reported as 33.3 mg/kg, the “MES screening: number of mice protected / number of mice tested” value [1] is reported as 3/4 and the “protection in the MES test” value [1] is reported as “at least 75%”. The ED50 [2] was 28.2 mg/kg, the “6 Hz … of mice protected / number of mice tested” value [2] was 2/4 and the “protection in the 6 Hz (32 mA) test” value [2] was 50%. The ED50 [3] was 31.3 mg/kg, the “protection in the scPTZ test” value [3] was 75% and the “scPTZ screening: number of mice protected / number of mice tested” value [3] was 3/4. The melting point was 152.3 to 153.5 °C and the TD50 [4] was 69.7 mg/kg.

With CN(C)C1CC(=O)N(C(C(=O)N2CCN(c3cccc(SC(F)(F)F)c3)CC2)c2ccccc2)C1=O.Cl (stereo not drawn) [Compound 18, 3-Dimethylamino-1-(2-oxo-1-phenyl-2-(4-(3-((trifluoromethyl)thio)phenyl)piperazin-1-yl)ethyl)pyrrolidine-2,5-dione hydrochloride] the “MES screening: number of mice protected / number of mice tested” value [1] was 1/4, the “6 Hz … of mice protected / number of mice tested” value [2] was 1/4 and the “scPTZ screening: number of mice protected / number of mice tested” value [3] was 1/4. For the same molecule, the melting point was 170.1 to 171.5 °C.

For CCC1(C)CC(=O)NC1=O (stereo not drawn) [ETX, ethosuximide, reference compound], the ED50 [2] was > 200 mg/kg and the ED50 [3] was 140 mg/kg.

For O=C([C@@H](c1ccccc1)N1C(=O)CCC1=O)N1CCN(c2cccc(C(F)(F)F)c2)CC1 [II], the “ED50 MES” value [9] is given as 36.0 (31.4–41.2) mg/kg, the “ED50 6 Hz (32 mA)” value [10] is given as 39.2 (31.6–48.6) mg/kg and the “ED50 scPTZ” value [11] is given as 54.8 (43.5–69.1) mg/kg. The “maximal sodium current amplitude normalized to control (1.0)” value [12] was 0.75 ± 0.04.

In the case of O=C(C(c1ccccc1)N1C(=O)CCC1=O)N1CCN(c2cccc(C(F)(F)F)c2)CC1 (stereo not drawn) [I], the “ED50 MES” value [9] is listed as 23.7 (18.4–31.2) mg/kg, the “ED50 6 Hz (32 mA)” value [10] is listed as 22.4 (17.4–28.8) mg/kg and the “ED50 scPTZ” value [11] is listed as 59.4 (37.5–94.1) mg/kg. The “ED50 6 Hz (44 mA)” value [13] was 73.2 (57.4–93.4) mg/kg, the “TD50 (rotarod test)” value ([14]; Table 2) was 195.7 (132.7–288.6) mg/kg and the “TD50 (rotarod test)” value [14] was 195.7 (132.7–288.6) mg/kg.

For COC[C@@H](NC(C)=O)C(=O)NCc1ccccc1 [LCS, lacosamide], the “ED50 6 Hz (44 mA)” value [13] is given as 6.9 (5.4–8.6) mg/kg.

For CC[C@@H](C(N)=O)N1CCCC1=O [LEV, levetiracetam, reference compound], the ED50 [1] is given as > 500 mg/kg, the “ED50 6 Hz (44 mA)” value [13] is given as >500 mg/kg and the TD50 [4] is given as > 500 mg/kg. The “TD50 (rotarod test)” value ([14]; Table 2) was >500 mg/kg.

In the case of CCCC(CCC)C(=O)O [VPA, valproic acid, reference compound], the ED50 [3] is given as 239 mg/kg and the “dose active in the capsaicin test” value [15] is given as 200 mg/kg.
